The text below walks through data of patent US4994446A, “Drug system” (Ramot - University Authority for Applied Research and …, priority 1989, dated 1991).

For assay [1], the system named is NMDA receptor channel. Description: Equilibrium binding of [3H]MK-801 (Scatchard), rat cerebral cortex membranes. To be noted: for Kd: 4 hr at 25° C., read-out: Kd determined at equilibrium. The method, then:
(§1) Binding assays were performed in triplicate at 25° C. with repeatedly washed rat cerebral cortex membranes (80 μg protein) as described in Biochem. ibid. Assays were carried out in the absence or in the presence of 10^-4 M AP-5, or in the presence of 10 μM MgCl2 together with 1 μM L-glutamate and 1 μM glycine. Nonspecific binding was determined in samples containing 10^-4 M PCP. Data were expressed as the specific binding of [^3 H]MK-801 and analyzed according to the two-step binding model of interactions between noncompetitive blockers and the NMDA receptor channel. The model assumes a first order diffusion of the ligand from the outside into the interior of the channel, followed by association of the ligand with its receptor sites. Under the two extreme conditions employed here, viz., binding of [^3 H]MK-801 in the presence of agonists (unlimited diffusion) and in the absence of agonists (limited diffusion) the time courses of receptor occupation should respectively follow pseudo first order (eq. 1) and first order (eq. 2) kinetics:
FIG. 2 left illustrates the equilibrium binding of [^3 H] 801. Binding of [^3 H] 801 as a function of its concentration was assayed after incubation for 4 hr at 25° C. in the absence or in the presence of glutamate and glycine. Also shown are data for [^3 H] 801 binding to the receptor measured after their incubation for 3 hr followed by an additional 1 hr of incubation in the presence of 100 μM AP-5. Data are expressed in the form of Scatchard plot.

Assay [2] concerns NMDA receptor channel. The assay can be described thus: Dissociation of [3H]MK-801-receptor complexes, initiated by 100 μM unlabeled PCP. The format is binding, rat. The method, then: as §1
Samples were incubated at 25° C. with 8 nM [^3 H] 801 for 2 hr. The dissociation reaction was initiated by the addition of 100 μM unlabeled PCP. […] Reactions were terminated either immediately (zero time) or at the indicated times. Bo --amount of [^3 H]MK-801 bound at zero time. Bt --amount of [^3 H] 801 bound at time t.

In assay [3] the test system is NMDA receptor channel. Description: [3H]MK-801-receptor association kinetics, repeatedly washed rat cerebral cortex membranes. Format: binding. The protocol: as §1
([RL]eq-[RL])/[RL]eq≡exp.-(k1k2[L]/kb -k- 1)t eq. 1
1-{Kd [RL]/[L](RT ]-[RL ]}=exp.-Kb t eq. 2
where L, RT, RLeq and RL are respectively the ligand, the total number of binding sites, the bound ligand at equilibrium and at time t. ka and kb are the forward and background diffusion constants; k1 and k- 1 are the second order on-rate and the first order off-rate constants for the binding process. The overall equilibrium binding constant (Kd) is given by K- 1·kb /k1·k2.
FIG. 1A illustrates the time course of association of [^3 H] 801 (5 nM) with the NMDA receptor channel. Binding was determined at 25° C. as a function of time in the absence and in the presence of glutamate and glycine or in the presence of AP-5; whereas 1B illustrates the observed time constants (Kobs) derived from the pseudo first order plots of the association of 2, 5 and 8.6 nM [^3 H] 801 in the presence of glutamate and glycine plotted as a function of the ligand concentration. FIG. 1C is a first order plot (eq. 2) of [^3 H] 801-receptor association in the absence of agonists determined with ligand concentrations of 2 nM and 8.6 nM.

Setting [4] is: presence of glutamate and glycine.
The mark [5] stands for this setting: 5 nM ligand, with glutamate and glycine, 25° C.

Structures can show the parent of a compound that is named as a salt. Bounds are passed on as bounds.

Regarding `N[C@H](CCCP(=O)(O)O)C(=O)O` [AP-5, D(-)2-amino-5-phosphovaleric acid], the “effect on equilibrium binding of preequilibrated [3H]MK-801-receptor complexes” value in the assay on NMDA receptor channel [1] (3 hr incubation, then 1 hr with 100 μM AP-5) was “did not alter the equilibrium binding”. Moreover, in the assay with NMDA receptor channel [2] (100 μM AP-5 by itself, compared to control level), the “effect on rate of [3H]MK-801-receptor dissociation” value is on record as “decreases the rates”. Besides, the “effect on rate of [3H]MK-801-receptor association” value in the assay with NMDA receptor channel [3] (AP-5 (10^-4 M) by itself, compared to control level) is “decreases the rates”.

For the compound `C[C@]12N[C@H](Cc3ccccc31)c1ccccc12` [[^3 H]MK-801, (+) 5 methyl-10,11 dihydro-5H-dibenzo[a,d]cyclohepten-5,10-imine maleate], the Kd on NMDA receptor channel [1] (absence of glutamate and glycine) is 2.1 nM; on NMDA receptor channel [1] (setting [4]), 4.2 nM; on NMDA receptor channel [3] (presence of glutamate and glycine, read-out: kinetically derived dissociation constant (Kd), ratio of off-rate and on-rate constants), 4.8 nM. Further, the dissociation rate constant in the assay with NMDA receptor channel [2] (setting [4]) turned out to be 0.1 min⁻¹. Further, in the assay with NMDA receptor channel [3] (5 nM ligand, absence of exogenous agonists, 25° C.), the “incubation time to reach equilibrium” value was above 6 h. The “association t1/2” value in the assay with NMDA receptor channel [3] (setting [5]) is around 7 min. Also, in the assay with NMDA receptor channel [3] (setting [5]), the “time to approach equilibrium” value fell in the range of 45 to 60 min. Also, the “half times of the association reactions” value with NMDA receptor channel [3] (absence of exogenous agonists, did not vary with ligand concentration) fell in the range of 60 to 70 min. Moreover, the “apparent off-rate time constant (k-1) from association” value in the assay with NMDA receptor channel [3] (presence of glutamate and glycine (FIG. 1B)) amounted to 0.075 min⁻¹. For the same compound, the “increase in ligand-receptor binding immediately after onset of binding” value with NMDA receptor channel [3] (with glutamate and glycine vs control without) was ~ 9 times that of the control.
